Data reported in EP1068805A1, “Dietetic foods and pharmaceutical preparations inhibiting blood coagulation” (CPC INTERNATIONAL INC., priority 1996, dated 1997).
Where two headings read alike, the source gives them in different places.

Experiments:
[1] = target: T1, Υ-glutamylcarboxylase (Bos taurus, UniProt Q07175); assay: Inhibition of carboxylase activity in salt-washed liver microsomes, bovine system; type: biochemical; details: cofactor KH2; mean of triplicate experiments with S.E.M.; read-out: I-50 (µm) in bovine system
T1 sequence (Q07175 2-758): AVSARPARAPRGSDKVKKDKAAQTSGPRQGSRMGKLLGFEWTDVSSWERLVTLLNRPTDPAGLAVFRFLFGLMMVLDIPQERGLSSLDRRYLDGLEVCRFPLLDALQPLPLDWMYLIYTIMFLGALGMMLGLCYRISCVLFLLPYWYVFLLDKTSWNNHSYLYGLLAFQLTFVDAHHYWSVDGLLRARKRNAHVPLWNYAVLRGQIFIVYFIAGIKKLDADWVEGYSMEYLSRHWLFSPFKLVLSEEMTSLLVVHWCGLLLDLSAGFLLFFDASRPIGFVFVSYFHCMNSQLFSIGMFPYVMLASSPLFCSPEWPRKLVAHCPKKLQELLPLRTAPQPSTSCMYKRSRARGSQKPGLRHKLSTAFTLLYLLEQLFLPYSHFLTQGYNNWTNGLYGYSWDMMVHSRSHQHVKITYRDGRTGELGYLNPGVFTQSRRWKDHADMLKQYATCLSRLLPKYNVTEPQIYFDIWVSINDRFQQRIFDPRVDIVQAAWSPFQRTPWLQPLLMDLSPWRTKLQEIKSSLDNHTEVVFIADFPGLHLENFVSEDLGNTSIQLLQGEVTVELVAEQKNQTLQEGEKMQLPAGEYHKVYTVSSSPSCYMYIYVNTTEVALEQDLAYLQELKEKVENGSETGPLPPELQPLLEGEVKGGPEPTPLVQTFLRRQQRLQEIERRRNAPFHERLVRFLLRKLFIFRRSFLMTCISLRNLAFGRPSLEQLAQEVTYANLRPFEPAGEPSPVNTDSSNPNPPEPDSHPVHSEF
Text: (§1) Prenylquinones like phylloquinone (vitamin K1), ubiquinone and plastoquinone function as co-enzymes during the conversion of glutamate into γ-carboxyl-glutamate (Gla), which is an essential step in the formation of the blood coagulation factors. The active form of vitamin K is the quinol (KH2), the oxidation of which provides the energy required for Gla formation. In this reaction KH2 is converted into vitamin K epoxide (KO), which is recycled in two steps by the action of an enzyme called KO-reductase.
(§2) In vitro systems were used to test either the γ-glutamylcarboxylase or KO-reductase. Salt-washed microsomes were prepared from the livers of normal cows and from normal and vitamin K-deficient rats of the Lewis strain.
(§3) Inhibition curves were prepared at a wide concentration range of prenylquinones (UQ-9, UQ-10, and PQ-9) using the cofactor vitamin K either in its quinol, its quinone, or in its epoxide form. From these curves the inhibitor concentrations required for 50% inhibition (I-50) were calculated (dotted lines in Fig. 1) for the various carboxylating enzyme systems from the cow as well as from rats. Incubations were performed under standard conditions, the inhibitors were added after solubilization in Triton X- 114. All points in Fig. 1 represent the means of duplicate experiments. 1-50 values were calculated as shown by the dotted lines.

[2] = target: Υ-glutamylcarboxylase; assay: as above; type: biochemical; details: mean of triplicate experiments with S.E.M., read-out: I-50 (µm) in bovine system
Text: as §1, §2, §3

[3] = target: T2, Υ-glutamylcarboxylase (Rattus norvegicus, UniProt O88496); assay: Inhibition of carboxylase activity in salt-washed liver microsomes, rat system; type: biochemical, rats of the Lewis strain; details: cofactor KH2; mean of triplicate experiments with S.E.M.; read-out: I-50 (µM) in rat system
T2 sequence (O88496 1-758): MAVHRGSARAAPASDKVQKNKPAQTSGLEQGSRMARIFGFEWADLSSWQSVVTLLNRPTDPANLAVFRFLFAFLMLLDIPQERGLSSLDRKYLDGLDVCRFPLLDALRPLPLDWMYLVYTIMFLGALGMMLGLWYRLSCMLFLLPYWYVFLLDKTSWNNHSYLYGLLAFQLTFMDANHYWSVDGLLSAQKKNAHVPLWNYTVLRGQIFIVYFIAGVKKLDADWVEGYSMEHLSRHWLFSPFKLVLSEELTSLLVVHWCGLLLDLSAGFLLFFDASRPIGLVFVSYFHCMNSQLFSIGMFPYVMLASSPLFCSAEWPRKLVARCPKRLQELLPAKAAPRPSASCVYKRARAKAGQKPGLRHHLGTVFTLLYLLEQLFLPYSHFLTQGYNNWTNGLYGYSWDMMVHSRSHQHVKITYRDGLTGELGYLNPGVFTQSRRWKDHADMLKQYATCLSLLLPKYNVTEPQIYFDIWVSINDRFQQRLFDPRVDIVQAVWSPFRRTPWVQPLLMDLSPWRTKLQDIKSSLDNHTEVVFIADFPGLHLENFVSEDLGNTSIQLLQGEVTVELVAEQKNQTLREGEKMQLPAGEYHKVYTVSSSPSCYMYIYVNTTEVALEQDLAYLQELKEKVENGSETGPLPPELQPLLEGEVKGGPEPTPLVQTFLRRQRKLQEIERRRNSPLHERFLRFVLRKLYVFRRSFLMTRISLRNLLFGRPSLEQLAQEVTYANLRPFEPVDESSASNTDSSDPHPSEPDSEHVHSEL
Text: as §1, §2, §3

[4] = tested on: plasma prothrombin; assay: Effect of dietary oils on plasma prothrombin concentration (rat feeding study); type: in vivo, Wistar rats; details: animal data extrapolated to adult reference person of about 60 kg

| IC50 [1] [µM] | IC50 ([2]; cofactor K) [µM] | IC50 ([2]; cofactor KO) [µM] | IC50 [3] [µM] | Compound | effective dose extrapolated to humans [4] |
| --- | --- | --- | --- | --- | --- |
| 105 ± 14 | 86 ± 12 | 72 ± 8 | 25 ± 6 | COC1=C(OC)C(=O)C(CC=C(C)CCC=C(C)CCC=C(C)CCC=C(C)CCC=C(C)CCC=C(C)CCC=C(C)CCC=C(C)CCC=C(C)C)=C(C)C1=O [UQ-9, ubiquinone-9] | about 40 mg |
| 110 ± 17 | 76 ± 5 | 91 ± 15 | 36 ± 7 | COC1=C(OC)C(=O)C(CC=C(C)CCC=C(C)CCC=C(C)CCC=C(C)CCC=C(C)CCC=C(C)CCC=C(C)CCC=C(C)CCC=C(C)CCC=C(C)C)=C(C)C1=O [UQ-10, ubiquinone-10] |  |

| Compound | IC50 [1] [µM] | IC50 ([2]; cofactor K) [µM] | IC50 ([2]; cofactor KO) [µM] | IC50 [3] [µM] | effective dose extrapolated to humans [4] |
| --- | --- | --- | --- | --- | --- |
| CC(C)=CCC/C(C)=C/CC/C(C)=C/CC/C(C)=C/CC/C(C)=C/CC/C(C)=C/CC/C(C)=C/CC/C(C)=C/CC/C(C)=C/CC1=CC(=O)C(C)=C(C)C1=O [PQ-9, plastoquinone] | 85 ± 11 | 59 ± 4 | 41 ± 7 | 39 ± 10 |  |
